How the values were obtained:
[1] = test system: Middle East respiratory syndrome-related coronavirus; assay: Antiviral activity against MERS-CoV; assay type: functional, organism-based
SARS-CoV-2 [2] = assay type: functional, Severe acute respiratory syndrome coronavirus 2, Vero E6; details: time 72 hrs
SARS-CoV-2 [3] = assay type: functional, organism-based, Vero E6; details: Severe acute respiratory syndrome coronavirus 2, Vero C1008, 72 h
[4] = molecular target: Replicase polyprotein 1ab (Severe acute respiratory syndrome coronavirus 2, UniProt P0DTD1); assay: Inhibition of SARS-CoV-2 M-protease
SARS-CoV-2 [5] = assay type: functional, organism-based, Vero E6; details: Severe acute respiratory syndrome coronavirus 2, Vero C1008
SARS-CoV-2 [6] = assay type: functional, organism-based; details: Severe acute respiratory syndrome coronavirus 2, A549-ACE2
SARS-CoV = assay: Antiviral activity against SARS-CoV in 24 hrs pretreated primary human liver spheroids assessed as reduction in viral load at 400 to 500 nM measured after 48 hrs; assay type: functional, Severe acute respiratory syndrome-related coronavirus; parameters: scale not given: the % may be the effect or the level left; details: dose 400-500 nM, time 72 hrs
[7] = test system: Middle East respiratory syndrome-related coronavirus; assay: Antiviral activity against MERS-CoV infected in 1 hr pretreated human Huh-7 cells assessed as inhibition of viral growth at 10 uM measured after 48 hrs by plaque reduction assay relative to control; assay type: functional; details: time 49 hrs
SARS-CoV-2 [8] = assay: microbe, parasite or virus in culture; details: Severe acute respiratory syndrome coronavirus 2
Murine coronavirus = assay: Antiviral activity against mCoV; assay type: functional, organism-based
[9] = test system: Middle East respiratory syndrome-related coronavirus; assay: microbe, parasite or virus in culture; details: Huh-7, 72 h
in vitro = details: human, Huh-7 cells
Human coronavirus 229E = assay: Antiviral activity against hCoV-229e at 4 uM assessed as reduction of viral RNA relative to control; assay type: functional; parameters: scale not given: the % may be the effect or the level left

Structure (SMILES): Cn1nc(C(C)(C)C)cc1NC(=O)Nc1ccc(Oc2ccncc2)cc1
- IC50 [1]: 4630 nM

Structure (SMILES): CCN1CCN(Cc2ccc(Nc3ncc(F)c(-c4cc(F)c5nc(C)n(C(C)C)c5c4)n3)nc2)CC1 [ABEMACICLIB]
- Activity (SARS-CoV-2 [2]): 60%
- EC50 (SARS-CoV-2 [3]): 2160 nM

Structure (SMILES): O=C1Cc2c([nH]c3ccc([N+](=O)[O-])cc23)-c2ccccc2N1 [ALSTERPAULLONE]
- IC50 [4]: 1500 nM

Structure (SMILES): Cc1cccc(/C=N/Nc2cc(N3CCOCC3)nc(OCCc3ccccn3)n2)c1 [APILIMOD]
- IC50 (SARS-CoV-2 [5]): < 80 nM
- IC50 (SARS-CoV-2 [6]): 7 nM

Structure (SMILES): CC(C)Cn1ncc2cc(Oc3ccc(F)cc3F)c(C(=O)NCCN(C)C)cc21 [ARRY-797]
- IC50 [1]: 913 nM

Structure (SMILES): CNS(=O)(=O)Nc1nccc(Cc2c(C)c3ccc(Oc4ncccn4)cc3oc2=O)c1F [AVUTOMETINIB]
- IC50 (SARS-CoV-2 [3]): 600 nM

Structure (SMILES): CCS(=O)(=O)N1CC(CC#N)(n2cc(-c3ncnc4[nH]ccc34)cn2)C1 [BARICITINIB]
- Activity (SARS-CoV): 30%

Structure (SMILES): CCc1cnn2c(NCc3ccc[n+]([O-])c3)cc(N3CCCC[C@H]3CCO)nc12 [DINACICLIB]
- IC50 (SARS-CoV-2 [5]): 270 nM
- IC50 (SARS-CoV-2 [6]): 32 nM

Structure (SMILES): CO[C@H]1C[C@@H]2CC[C@@H](C)[C@@](O)(O2)C(=O)C(=O)N2CCCC[C@H]2C(=O)O[C@H]([C@H](C)C[C@@H]2CC[C@@H](OCCO)[C@H](OC)C2)CC(=O)[C@H](C)/C=C(\C)[C@@H](O)[C@@H](OC)C(=O)[C@H](C)C[C@H](C)/C=C/C=C/C=C/1C [EVEROLIMUS]
- inhibition at 10 µM [7]: 56%

Structure (SMILES): CCc1nc(C(N)=O)c(Nc2ccc(N3CCC(N4CCN(C)CC4)CC3)c(OC)c2)nc1NC1CCOCC1 [GILTERITINIB]
- IC50 [1]: 807 nM
- IC50 (SARS-CoV-2 [8]): 807 nM

Structure (SMILES): CC(C)=CCC[C@](C)(O)[C@H]1CC[C@]2(C)[C@@H]1[C@H](O)C[C@@H]1[C@@]3(C)CC[C@H](O)C(C)(C)[C@@H]3[C@@H](O[C@@H]3O[C@H](CO)[C@@H](O)[C@H](O)[C@H]3O[C@@H]3O[C@H](CO)[C@@H](O)[C@H](O)[C@H]3O)C[C@]12C [GINSENOSIDE RF]
- IC50 (Murine coronavirus): 10000 nM

Structure (SMILES): O=C1Cc2c([nH]c3ccc(Br)cc23)-c2ccccc2N1 [KENPAULLONE]
- IC50 [4]: 1500 nM

Structure (SMILES): NC(=O)N1CCC(CC(=O)N2CCC([C@H]3c4ncc(Br)cc4CCc4cc(Cl)cc(Br)c43)CC2)CC1 [LONAFARNIB]
- IC50 (SARS-CoV-2 [3]): 4990 nM

Structure (SMILES): CCCCCCCCCCCCCCCCOP(=O)([O-])OCC[N+](C)(C)C [MILTEFOSINE]
- inhibition at 10 µM [7]: 28%

Structure (SMILES): COc1ncc(-c2ccc3nccc(-c4ccnnc4)c3c2)cc1NS(=O)(=O)c1ccc(F)cc1F [OMIPALISIB]
- IC50 (SARS-CoV-2 [3]): 14 nM

Structure (SMILES): C=CC(=O)Nc1cc(Nc2nccc(-c3cn(C)c4ccccc34)n2)c(OC)cc1N(C)CCN(C)C [OSIMERTINIB]
- IC50 (SARS-CoV-2 [3]): 3980 nM

Structure (SMILES): CC(C)(C)Cn1c(N)nc2ccc(-c3[nH]c(C(C)(C)C)nc3-c3ccc(F)cc3)nc21 [RALIMETINIB]
- IC50 [1]: 873 nM

Structure (SMILES): CN1CCN(CCOc2cc(OC3CCOCC3)c3c(Nc4c(Cl)ccc5c4OCO5)ncnc3c2)CC1 [SARACATINIB]
- EC50 [9]: 2900 nM
- CC50 (in vitro): > 50000 nM

Structure (SMILES): C[S+]([O-])c1ccc(-c2nc(-c3ccc(F)cc3)c(-c3ccncc3)[nH]2)cc1 (configuration not stated) [SB-203580]
- Activity (Human coronavirus 229E): 60%

Structure (SMILES): O=C(O)c1ccc2c(c1)nc(Nc1cccc(Cl)c1)c1ccncc12 [SILMITASERTIB]
- IC50 (SARS-CoV-2 [8]): 1280 nM

Structure (SMILES): CO[C@H]1C[C@@H]2CC[C@@H](C)[C@@](O)(O2)C(=O)C(=O)N2CCCC[C@H]2C(=O)O[C@H]([C@H](C)C[C@@H]2CC[C@@H](O)[C@H](OC)C2)CC(=O)[C@H](C)/C=C(\C)[C@@H](O)[C@@H](OC)C(=O)[C@H](C)C[C@H](C)/C=C/C=C/C=C/1C [SIROLIMUS]
- inhibition at 10 µM [7]: 40%

Structure (SMILES): COC[C@H]1OC(=O)c2coc3c2[C@@]1(C)C1=C(C3=O)[C@@H]2CCC(=O)[C@@]2(C)C[C@H]1OC(C)=O [WORTMANNIN]
- inhibition at 10 µM [7]: 40%

Source: ChEMBL document CHEMBL5131378, “Kinases as Potential Therapeutic Targets for Anti-coronaviral Therapy” (J Med Chem, 2022)
